According to article PMC8242589, “Cardiac Safety of Kinase Inhibitors – Improving Understanding and Prediction of Liabilities in Drug Discovery Using Human Stem Cell-Derived Models” (Frontiers in Cardiovascular Medicine, 2021):
pIC50: −log10 of the molar value. Entries after “also recorded” stand apart in the source; their conditions may differ.

Legend:
[1] = tested on: hSC-CMs (Cor.4U Cardiomyocytes); test: ATP assay (CellTiter-Glo Luminescent Cell Viability Assay); type: cell-based, human; conditions: for viability at 0.01 µM / viability at 0.1 µM / viability at 1 µM / viability at 10 µM: Homo sapiens, Cardiomyocyte; for viability at 0.01 µM / viability at 0.1 µM / viability at 1 µM / viability at 10 µM / ATP: normalized to time-matched DMSO control
Description: Cor.4U® Cardiomyocytes (Ncardia, Netherlands) were cultured in 96-well plates at density of 25,000 – 30,000 cells per well. Cells were maintained at 5% CO2 and 37 °C for 4 days prior to experiments. The cell culture medium (Cor4U® Complete Culture Medium, cat# Ax-M-HC250E, Axiogenesis AG, Cologne, Germany) was changed every 24 h and was replaced by serum-free BMCC medium (cat# Ax-M-BMCC259, Axiogenesis AG, Cologne, Germany) 12 h prior to drug addition.
The CellTiter-Glo Luminescent Cell Viability Assay (cat# G7572, Promega, USA) was performed for quantification of the cellular ATP concentration according to manufacturer's instructions. Plates were shaken for 2 min in the dark, incubated at ambient temperature for 10 min before measuring luminescence (Integration time 0.1 seconds per well) with Luminescence Counter (Synergy H1, BioTek Instruments, Inc., Winooski, Vermont). The measured ATP concentration values were normalized to the time-matched DMSO controls. Data are representative of at least three replicates per concentration.

[2] = tested on: hSC-CMs (Cor.4U Cardiomyocytes); test: CardioExcyte 96 impedance and EFP recording (beating rate, base impedance); type: cell-based, human; conditions: for activity at 0.01 µM / activity at 0.1 µM / activity at 1 µM / activity at 10 µM: Homo sapiens, Cardiomyocyte; for activity at 0.01 µM / activity at 0.1 µM / activity at 1 µM / activity at 10 µM / BR / Base Imp: vs baseline before drug (taken as 100%)
Description: Cor.4U® Cardiomyocytes (Ncardia, Netherlands) were cultured in 96-well plates at density of 25,000 – 30,000 cells per well. Cells were maintained at 5% CO2 and 37 °C for 4 days prior to experiments.
Functional monitoring of cardiomyocytes was done using CardioExcyte® 96 (Nanion technologies GmbH, Germany). Extracellular field potential (EFP) and impedance signals were recorded from hSC-CMs that formed monolayers in the wells of the NSP-96 plate. Beating Rate (BR, per minute) was calculated as the reciprocal of the inter-spike interval (ISI) in EFP signal. Impedance signals from spontaneously beating hSC-CMs were recorded with a sampling rate of 1 ms (1 kHz), and EFP data were collected at 0.1ms (10 kHz). Data acquisition was controlled by CardioExcyte® 96 Control software as previously described ([22]). The functional parameters recorded in each concentration of test items were compared to the base line values before drug addition (taken as 100%) to define fractional change.

[3] = tested on: PI3K p110γ; conditions: ref [23]–[25] (NVP-BEZ235), [28] (GDC-0941), [33] (CAL-101), [35] (CZC24832); read-out: Target IC50 p110γ; cited from earlier work
[4] = tested on: PI3K p110β; conditions: ref [23]–[25] (NVP-BEZ235), [27] (LY 294002), [28] (GDC-0941), [32] (TGX-221), [33] (CAL-101), [35] (CZC24832); read-out: Target IC50 p110β; cited from earlier work
[5] = tested on: hSC-CMs (Cor.4U Cardiomyocytes); test: Apoptosis assay (CellEvent Caspase-3/7 Green, IncuCyte ZOOM kinetics over 24 h); type: cell-based, human; design: key to Caspase / Caspase MEAN: % of time-matched vehicle control (green object area); conditions: for activity at 0.01 µM / activity at 0.1 µM / activity at 1 µM / activity at 10 µM: Homo sapiens, Cardiomyocyte; for activity at 0.01 µM / activity at 0.1 µM / activity at 1 µM / activity at 10 µM / Caspase: normalized to time-matched vehicle control
Description: Cor.4U® Cardiomyocytes ([…], Netherlands) were cultured in 96-well plates at density of 25,000 - 30,000 cells per well. Cells were maintained at 5% CO2 and 37 °C for 4 days prior to experiments. […] The plates were incubated 2 h before compound treatment in the IncuCyte ZOOM (ESSEN BioScience, Ann Arbor, Michigan) to set a baseline before the 24 h compound treatment. […] Imaging was done using 10x microscope objective of the IncuCyteZOOM with four images per well-taken every 2 h in both phase-contrast and green fluorescence. The fluorescent nuclear signal of the apoptotic cells was separated from background with the integrated object counting algorithm, adjusted to cardiomyocytes, and the calculated total green object area per well (μm^2/well) plotted against time. Data were normalized to those of the time-matched vehicle control. Data were representative of at least three replicates per concentration.

[6] = tested on: ROCK1; conditions: ref [36] (RKI-1447), [37], [38] (Fasudil), [39]–[43] (Y-27632), [44], [45] (GSK-429286); read-out: Target IC50 ROCK1; cited from earlier work

CC(C)(C)NS(=O)(=O)c1cncc(-c2cc(F)c3nc(N)nn3c2)c1 [CZC24832]
viability at 0.01 µM ([1]; 0.01 µM, 2h): 100%
viability at 0.01 µM ([1]; 0.01 µM, 24h): 100%
viability at 0.1 µM ([1]; 0.1 µM, 2h): 99%
viability at 0.1 µM ([1]; 0.1 µM, 24h): 97%
viability at 1 µM ([1]; 1 µM, 2h): 99%
viability at 1 µM ([1]; 1 µM, 24h): 97%
viability at 10 µM ([1]; 10 µM, 2h): 101%
viability at 10 µM ([1]; 10 µM, 24h): 100%
Effect on ATP level, in words ([1]; hSC-CMs, up to the highest test concentrations): did not have any effect
activity at 0.01 µM ([2]; 0.01 µM, 2h, read-out: BR): 100%
activity at 0.01 µM ([2]; 0.01 µM, 2h, read-out: Base Imp): 98%
activity at 0.01 µM ([2]; 0.01 µM, 24h, read-out: BR): 96%
activity at 0.01 µM ([2]; 0.01 µM, 24h, read-out: Base Imp): 99%
activity at 0.1 µM ([2]; 0.1 µM, 2h, read-out: BR): 95%
activity at 0.1 µM ([2]; 0.1 µM, 2h, read-out: Base Imp): 98%
activity at 0.1 µM ([2]; 0.1 µM, 24h, read-out: BR): 98%
activity at 0.1 µM ([2]; 0.1 µM, 24h, read-out: Base Imp): 97%
activity at 1 µM ([2]; 1 µM, 2h, read-out: BR): 97%
activity at 1 µM ([2]; 1 µM, 2h, read-out: Base Imp): 96%
activity at 1 µM ([2]; 1 µM, 24h, read-out: BR): 98%
activity at 1 µM ([2]; 1 µM, 24h, read-out: Base Imp): 93%
activity at 10 µM ([2]; 10 µM, 2h, read-out: BR): 94%
activity at 10 µM ([2]; 10 µM, 2h, read-out: Base Imp): 93%
activity at 10 µM ([2]; 10 µM, 24h, read-out: BR): 97%
activity at 10 µM ([2]; 10 µM, 24h, read-out: Base Imp): 89%
Change in the hSC-CMs parameters (surface plots: beating rate, base impedance, ATP) ([2]; hSC-CMs, 2 and 24 h): below 20%
Effect on hSC-CMs function (base impedance and beating rate), in words ([2]; hSC-CMs, 2 and 24 h): did not have any effect
pIC50 [3]: 7.57
pIC50 [4]: 5.96
activity at 0.01 µM ([5]; 0.01 µM, 2h): 87%
activity at 0.01 µM ([5]; 0.01 µM, 24h): 79%
activity at 0.1 µM ([5]; 0.1 µM, 2h): 132%
activity at 0.1 µM ([5]; 0.1 µM, 24h): 88%
activity at 1 µM ([5]; 1 µM, 2h): 109%
activity at 1 µM ([5]; 1 µM, 24h): 68%
activity at 10 µM ([5]; 10 µM, 2h): 102%
activity at 10 µM ([5]; 10 µM, 24h): 76%
Apoptosis (caspase-3/7 activation), result in words ([5]; hSC-CMs, monitored over 24 h): no effect

O=C(NCc1cccc(O)c1)Nc1nc(-c2ccncc2)cs1 [RKI-1447]
ATP ([1]; 0.01 µM, 2h): 98
ATP ([1]; 0.01 µM, 24h): 102
ATP ([1]; 0.1 µM, 2h): 99
ATP ([1]; 0.1 µM, 24h): 99
ATP ([1]; 1 µM, 2h): 101
ATP ([1]; 1 µM, 24h): 98
ATP ([1]; 10 µM, 2h): 104
ATP ([1]; 10 µM, 24h): 102
pIC50 [6]: 7.84
BR ([2]; 0.01 µM, 2h): 107
Base Imp ([2]; 0.01 µM, 2h): 87
BR ([2]; 0.01 µM, 24h): 100
Base Imp ([2]; 0.01 µM, 24h): 88
BR ([2]; 0.1 µM, 2h): 106
Base Imp ([2]; 0.1 µM, 2h): 86
BR ([2]; 0.1 µM, 24h): 101
Base Imp ([2]; 0.1 µM, 24h): 81
BR ([2]; 1 µM, 2h): 110
Base Imp ([2]; 1 µM, 2h): 80
BR ([2]; 1 µM, 24h): 107
Base Imp ([2]; 1 µM, 24h): 69
BR ([2]; 10 µM, 2h): 112
Base Imp ([2]; 10 µM, 2h): 68
BR ([2]; 10 µM, 24h): 115
Base Imp ([2]; 10 µM, 24h): 65
Effect on base impedance, in words ([2]; hSC-CMs, 2 and 24 h): concentration-and time-dependent decrease in base impedance; also recorded: concentration-dependent effects
Caspase ([5]; 0.01 µM, 2h): 116
Caspase ([5]; 0.01 µM, 24h): 115
Caspase ([5]; 0.1 µM, 2h): 117
Caspase ([5]; 0.1 µM, 24h): 115
Caspase ([5]; 1 µM, 2h): 90
Caspase ([5]; 1 µM, 24h): 110
Caspase ([5]; 10 µM, 2h): 93
Caspase ([5]; 10 µM, 24h): 129
